Data published in US20100292085A1, “Methods and compositions for characterization of HSD1 inhibitors” (priority 2005, published 2010).

How the values were obtained:
[1] = test system: SCD; test: Off-target activity by SCD expression level (microarray); assay type: cell-based, human; conditions: HepG2/HSD1 cells, 10 μM forskolin, no cortisone, vs forskolin alone; microarray probe
Method: (§1) Total RNA isolated from cultured cell samples was used to make fluorescently labeled cRNA that was hybridized to DNA oligonucleotide microarrays as described previously (Hughes et al., supra., Marton et al., 1998, Nat. Med. 4:1293-301). Briefly, 4 μg of total RNA from each cell culture sample was used to synthesize dsDNA through RT. cRNA was produced by in vitro transcription and labeled postsynthetically with Cy3 or Cy5. Two populations oflabeled cRNA, a control population from vehicle/forskolin treated cells and an experimental population, i.e., cortisone/forskolin plus vehicle or plus HSD1 test compound, were compared with each other by competitive hybridization to microarrays. Two hybridizations were done with each cRNA sample pair using a fluorescent dye reversal strategy.
Each HSD1 inhibitor compound treated sample was compared to a forskolin alone cell sample. The HepG2/HSD1 cells used in these experiments were not contacted with cortisone.

[2] = biological target: T1, HSD1 (Homo sapiens, UniProt P28845); test: Direct measurement of HSD1 activity: 3H-cortisone conversion to cortisol by HPLC; assay type: cell-based; design: expressed in transfected cells
Method: Oxidoreductase Method: [1,2-^3H]-cortisone (48.7 Ci/mmol) was added to a final concentration of 20 nM to HepG2/HSD1 (2×10^6 cells/well in 6-well plates) and incubated for 1.5, 3, 6 and 22 hrs at 37° C. in culture medium (Dulbecco's Modified Eagle Medium with high glucose containing 2 mM L-glutamine, 10% fetal bovine serum, 100 U/ml penicillin, 100 μg/ml Streptomycin, 10 μM sodium pyruvate, 100 μM non-essential amino acids, 0.003 N NaOH and 0.8 mg/ml Geneticin). The samples (100 μl aliquots) were then extracted with 300 μl ethyl acetate and the upper, organic phases were dried. The dried organic extracts were then resuspended either in 100 μl DMSO for analysis by reverse-phase HPLC (buffer A=10% methanol/90% water; buffer B=90% methanol/10% water using a gradient from 20-45% Buffer B; YMC Combiscreen Pro C18 50 mm×4.6 mm column; flow rate 2.5 mL/min).
HSD1 activity was measured by spiking the incubation medium with ^3H-cortisone. After 21 hrs post compound treatment, conversion of the cortisone to cortisol was assessed by HPLC analysis.

[3] = test system: off-target signature genes (SCD, DHCR7, ACLY, FBXO9, HEY1); test: Off-target signature genes measured by RT-PCR (TAQman) in HepG2/HSD1 cells; assay type: cell-based, human
Method: HepG2 cells stably transfected with human HSD1, as previously described in Example 1, were plated in either 96 well or 24 well tissue culture plates. Cells were plated at a density of 6.25×10^5 cells/well on 24 well plates in 500 μl DMEM culture medium prepared as previously described. For the 96 well plates, the cells were plated at a density of 1×10^5 cells per well in 100 μl culture medium. The cells were incubated at 37° C. in a 5% CO2 atmosphere. After 24 hours, the culture medium was removed and the cells were pre-incubated with, either 250 μl (24 well plate) or 50 μl (96 well plate), Culture Medium containing 2× concentration of HSD1 inhibitor (14 μM) or vehicle for 20 min at 37° C. in a 5% CO2 atmosphere. Culture Medium (either 250 μl or 50 μl) containing 1000 nM cortisone (500 nM final concentration) or vehicle, and 20 μM forskolin (10 μM final concentration), was next added to the cells. The cells were further incubated for 20 hrs at 37° C. in a 5% CO2 atmosphere. […]
Oligonucleotide probes were labeled with the 6-FAM fluorophore at the 5′ end (FAM) and a non-fluorescent quencher at the 3′ end (NFQ). […] The levels of mRNA were normalized to the amount of 18S RNA detected in each sample using the Eukaryotic 18S rRNA Endogenous Control from Applied Biosystems. Levels of the target mRNAs in treated cells were calculated relative to the untreated cells.

[4] = test system: HepG2/HSD1 cells; test: Identification of the off-target response signature by microarray (Table 6); assay type: cell-based, human
Excerpt: This off-target gene signature was not detected in other active HSD1 inhibitor compounds with in vivo efficacy. Monitoring for the off-target signature identified by 3-(2-chlorophenyl)-4-methyl-5-(4-pentylbicyclo[2.2.2]oct-1-yl)-4H-1,2,4-triazole in the HepG2 cells over-expressing HSD1 can improve characterization and selection of candidate HSD1 compounds prior to in vivo efficacy testing.
as §1, with “strategy. […]” for “strategy.”

[5] = biological target: T1, HSD1; test: Cortisone signature genes measured by RT-PCR (TAQman) in HepG2/HSD1 cells; assay type: cell-based; design: expressed in transfected cells
Method: HepG2 cells stably transfected with human HSD1, as previously described in Example 1, were plated in either 96 well or 24 well tissue culture plates. Cells were plated at a density of 6.25×10^5 cells/well on 24 well plates in 500 μl DMEM culture medium prepared as previously described. For the 96 well plates, the cells were plated at a density of 1×10^5 cells per well in 100 μl culture medium. The cells were incubated at 37° C. in a 5% CO2 atmosphere. After 24 hours, the culture medium was removed and the cells were pre-incubated with, either 250 μl (24 well plate) or 50 μl (96 well plate), Culture Medium containing 2× concentration of HSD1 inhibitor (14 μM) or vehicle for 20 min at 37° C. in a 5% CO2 atmosphere. Culture Medium (either 250 μl or 50 μl) containing 1000 nM cortisone (500 nM final concentration) or vehicle, and 20 μM forskolin (10 μM final concentration), was next added to the cells. The cells were further incubated for 20 hrs at 37° C. in a 5% CO2 atmosphere. All conditions were run in duplicates.
HepG2/HSD1 cells were lysed using Trizol reagent (Life Technologies, Grand Island, N.Y.). Total RNA was isolated from HepG2/HSD1 lysate using the RNeasy 96-Kit (Qiagen Inc., Valencia, Calif.) following the manufacturer's instructions, including the optional on-column removal of contaminating DNA step by RNase-free DNase I treatment. The RNA was reverse-transcribed to single stranded cDNA using random hexamer primers with TAQman reverse transcription reagents (Applied Biosystems, Foster City, Calif.).
The sequences of the TAQman primers and probes used to detect the target cDNAs were synthesized by Qiagen Operon (Alameda, Calif.) and are shown in Tables 8 and 9.
Oligonucleotide probes were labeled with the 6-FAM fluorophore at the 5′ end (FAM) and a non-fluorescent quencher at the 3′ end (NFQ). Real-time PCR was performed on human HepG2/HSD1 cDNA using the TaqMan Universal PCR Master Mix (Applied Biosystems, Foster City, Calif.) and appropriate primer/probe sets on an ABI Prism 7900HT Sequence Detection System (Applied Biosystems, Foster City, Calif.) in the 384-well format according to manufacturer's instructions. The levels of mRNA were normalized to the amount of 18S RNA detected in each sample using the Eukaryotic 18S rRNA Endogenous Control from Applied Biosystems. Levels of the target mRNAs in treated cells were calculated relative to the untreated cells.

[6] = biological target: T1, HSD1; test: In vivo efficacy of HSD1 inhibitor; design: host or cells: in vivo
[7] = test system: HepG2/HSD1 cells; test: Off-target effects by microarray: number of genes changed, no cortisone; assay type: cell-based, human; conditions: number of genes changed vs forskolin alone
Method: as §1
The human microarrays used in this study contained 23,653 oligonucleotide probes corresponding to individual genes or expressed sequence tags. […]
(§2) After hybridization, arrays were scanned and fluorescence intensities for each probe were recorded. […] For each gene sequence present on the microarrays, statistical significance of differential gene expression was determined by calculating P values according to the following equation: […]
HSD1 compounds were evaluated using microarray gene expression measurements obtained from HepG2/HSD1 cells under conditions where the cells were not treated with cortisone. […]

[8] = biological target: T1, HSD1; test: HSD1 signature reversal activity: microarray of cortisone signature genes in HepG2/HSD1 cells; assay type: cell-based; design: expressed in transfected cells; conditions: slope of linear regression vs cortisone treatment alone (1.0 = no inhibition), Table 2 genes, 500 nM cortisone, 10 μM forskolin, inhibitor added as 2× concentration (14 μM), 20 hrs
Method: HepG2 human hepatoma cells stably transfected with human 11βHSD1 (HepG2/HSD1 cells) were plated at 2×10^6 cells per well on 6-well plates in 1 ml Culture Medium (DMEM with 2 mM L-Glutamine, 10% charcoal-dextran-treated FBS, 100 U/ml Penicillin, 100 μg/ml streptomycin, 10 μM sodium pyruvate, 100 μM non-essential amino acids, 0.003 N NaOH) at 37° C./5% CO2. After 24 hours, the Culture Medium was replaced with 500 μl Culture Medium containing 1000 nM cortisone (500 nM final concentration) and 20 μM forskolin (10 μM final concentration). The cells were incubated for 20 hrs at 37° C./5% CO2. Samples were run in triplicates. […]
as §2
Gene expression changes in the cortisone signature genes were analyzed to further assess the degree to which HSD1-agents cause a reversal in the magnitude of the cortisone signature due to the degree of inhibition of HSD1 activity. Gene expression levels of the cortisone signature genes were measured in cortisone treated HepG2/HSD1 cells and HepG2/HSD1 cells treated with an HSD1-agent affecting HSD1 activity. […]

[9] = RT-PCR, 500 nM cortisone + 10 μM forskolin, 20 hrs, inhibitor added as 2× concentration (14 μM)

T1 sequence (P28845 whole entry): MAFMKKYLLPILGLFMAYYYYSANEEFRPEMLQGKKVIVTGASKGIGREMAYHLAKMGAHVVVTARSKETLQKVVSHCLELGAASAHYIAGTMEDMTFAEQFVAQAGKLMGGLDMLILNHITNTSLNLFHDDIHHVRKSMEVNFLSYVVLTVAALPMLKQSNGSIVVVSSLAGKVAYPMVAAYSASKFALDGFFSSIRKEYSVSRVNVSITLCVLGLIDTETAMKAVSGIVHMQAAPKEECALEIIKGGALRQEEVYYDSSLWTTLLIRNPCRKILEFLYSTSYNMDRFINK

Percent Conversion to Cortisol ([2]; 3H-cortisone spiked medium, 21 hrs post compound treatment, cortisone/forskolin, HPLC): 2%
Percent Conversion to Cortisol normalized to cortisone/forskolin value ([2]; value in square brackets, cortisone/forskolin alone = 1.0): 0.05
G6PC Gene Transcript (Fold Change Relative to Vehicle Alone) [5, 9]: 1.0 Fold Change
Homer-2 Gene Transcript (Fold Change Relative to Vehicle Alone) [5, 9]: 1.5 Fold Change
LIPG Gene Transcript (Fold Change Relative to Vehicle Alone) [5, 9]: 2.7 Fold Change
PGC Gene Transcript (Fold Change Relative to Vehicle Alone) [5, 9]: 0.7 Fold Change
TAT Gene Transcript (Fold Change Relative to Vehicle Alone) [5, 9]: 1.2 Fold Change
Average of five genes (cortisone signature, Fold Change Relative to Vehicle Alone) ([5]; average of Homer-2, G6PC, PGC, TAT, LIPG): 1.4 Fold Change
HSD1 Signature Reversal Activity Values [8]: 0.03
SMILES: CCCCCC12CCC(c3nnc(-c4ccccc4Cl)n3C)(CC1)CC2 [3-(2-chlorophenyl)-4-methyl-5-(4-pentylbicyclo[2.2.2]oct-1-yl)-4H-1,2,4-triazole]
Log ratio of SCD gene expression [1]: 0.45
Average of five genes (off-target signature, Fold Change Relative to Vehicle Alone) [3]: 1.7 Fold Change
off-target signature (Table 6) in HepG2 cell line over-expressing HSD1 (in words) ([4]; independent of cortisone treatment): exhibited off-target activity
off-target response signature, number of gene markers ([4]; p-value<0.01, no fold change cut-off, common to three replicate studies, compound + forskolin): 330
efficacy in vivo (in words) [6]: failed to achieve significant efficacy in vivo
off-target activity (in words, from Table 5 microarray data) [7]: high levels of off-target activity
